Reference: paper PMC3448856 (Biochemistry, 2012)
Several values for one entry are separate records, joined by “and”; a condition that tells them apart may be missing. Identical values can stand only once. Peptide text beside a SMILES is read from it. * marks the point of attachment. Tos = Cc1ccc(S(=O)(=O)*)cc1; Bn = c1ccc(C*)cc1

Tests used:
unmodified hairpin DNA = test: EtBr fluorescence titration with unmodified hairpin DNA; type: binding; conditions: unmodified hairpin DNA (data not shown)
T98G cells [1] = test: Quantification of abasic sites; conditions: for level of aldehyde reactive sites (ARS): 0.25 μM compound alone, up to 18 h, background 1/10^5 nucleotides; for level of ARS in combination with MeLex: 80 μM MeLex + 0.25 μM compound, through at least 12 h
double-stranded DNA = conditions: cited from earlier work
DNA with a bulge = conditions: cited from earlier work
THF modified hairpin DNA = test: EtBr fluorescence titration with THF modified hairpin DNA; type: binding; conditions: THF modified hairpin DNA (data not shown)
APE-1 [2] = biological target: T1, APE-1 (Homo sapiens, UniProt P27695); test: Molecular beacon assay for APE-1 endonuclease inhibition; type: biochemical; conditions: endonuclease activity; cells printed ND
T98G cells [3] = test: Short term; type: cell-based, human; conditions: for LD10 concentration: 72 h MTS assay
T98G cells [4] = test: Potentiation of MeLex cytotoxicity, long term; type: cell-based, human; conditions: long term assay; for LD50 of MeLex in the presence of LD10 concentration of inhibitor: MeLex alone 9.9 μM
[5] = biological target: APE-1 activity in T98G cell nuclear lysates (Homo sapiens, UniProt P27695); test: Molecular beacon assay with T98G cell nuclear lysates; type: biochemical; conditions: EC2nM APE-1 activity
T98G cells [6] = test: Potentiation of MeLex cytotoxicity, short-term; type: cell-based, human; conditions: for LD50 of MeLex in the presence of LD10 concentration of inhibitor: 72 h MTS assay, MeLex by itself 267 μM
T98G cells [7] = test: Long term; type: cell-based, human
APE-1 [8] = biological target: T1, APE-1; test: Gel-based assay for APE-1 inhibitors; type: biochemical; conditions: in gel excision assay; 20 nM APE-1, 100 nM duplex DNA with THF abasic site
[9] = tested on: SKOV-3X ovarian tumor cells; conditions: read-out: IC50 for cell growth; cited from earlier work
APE-1 [10] = biological target: T1, APE-1; test: Fluorescence binding of 4 to APE-1 and displacement by E3330; conditions: displacement of 6 μM 4 from 1 μM APE-1
[11] = tested on: HEYC-2 ovarian tumor cells; conditions: read-out: IC50 for cell growth; cited from earlier work
[12] = tested on: APE-1 endonuclease activity; conditions: at 100 μM concentration; cited from earlier work
APE-1 redox = conditions: read-out: IC50 for redox inhibition; cited from earlier work
VERA kidney cell line = conditions: read-out: IC50 for the toxicity; cited from earlier work
[13] = tested on: self-complementary sequence 5′-GAGAGCGCTCTC; test: UV melting, self-complementary DNA; type: binding; conditions: TM without compound 36.4 °C
[14] = tested on: hairpin with the THF abasic site; test: UV melting, hairpin with THF abasic site; type: binding

T1 sequence (P27695 whole entry): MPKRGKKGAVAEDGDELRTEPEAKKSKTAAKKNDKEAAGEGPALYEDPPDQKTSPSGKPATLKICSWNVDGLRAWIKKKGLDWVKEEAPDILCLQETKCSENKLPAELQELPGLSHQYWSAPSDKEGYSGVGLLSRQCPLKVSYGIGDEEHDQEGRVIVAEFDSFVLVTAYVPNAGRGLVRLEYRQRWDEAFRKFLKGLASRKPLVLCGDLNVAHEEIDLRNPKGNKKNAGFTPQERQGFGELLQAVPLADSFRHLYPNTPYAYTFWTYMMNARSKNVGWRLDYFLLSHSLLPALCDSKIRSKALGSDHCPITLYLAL
Chain of APE-1 activity in T98G cell nuclear lysates (P27695 whole entry, stated change not applied): as the sequence (P27695 whole entry) above

With `CC[n+]1c(-c2ccccc2)c2cc(N)ccc2c2ccc(N)cc21` [EtBr, ethidium bromide] the Kd (unmodified hairpin DNA) was 1.6 µM, the “level of aldehyde reactive sites (ARS)” value (T98G cells [1]) was “no affect” and the “level of ARS in combination with MeLex” value (T98G cells [1]) was “dropped off”. The Kd (double-stranded DNA) was ~1 µM, the “stronger binding to DNA with a bulge than to double-stranded DNA” value (DNA with a bulge) was ~10 fold and the Kd (THF modified hairpin DNA) was 1.8 µM.
With `CC(N)C(=O)NC1C(CO)OC(n2cnc3c(N)ncnc32)C1O` (stereo not drawn) [Compound 17] the Ki (APE-1 [2]) was > 100 µM.
In the case of `O=C(NNc1ccnc2cc(Cl)ccc12)/C(=C/c1ccccc1Cl)NC(=O)c1ccccc1` [Compound 15], the Ki (APE-1 [2]) is reported as > 100 µM.
With `Cc1cc(N/N=C/c2c(C)n(C)n(-c3ccccc3)c2=O)c2cc3c(cc2n1)OCO3` [Compound 5] the LD10 concentration (T98G cells [3]) was 6.50 µM, the “fold less toxic than 4” value (T98G cells [3]; assay (short or long term) not stated) was ~20 fold and the “LD50 of MeLex in the presence of LD10 concentration of inhibitor” value (shortened to “LD50 of MeLex in the presence … of inhibitor”) (T98G cells [4]) was 3.6 µM. The Ki [5] was 1.41 µM, the “LD50 of MeLex in the presence … of inhibitor” value (T98G cells [6]) was 80 µM and the “increase in ARS above background” value (T98G cells [1]; 0.25 μM compound) was “approximately 4 fold”. For the same compound, the LD10 concentration (T98G cells [7]; long term assay) was 0.90 µM and the IC50 (APE-1 [8]) was 34.4 µM.
With `CCOC(=O)CC/C(=C\NC(=O)c1ccccc1)NC(=O)c1ccccc1` [Compound 26] the Ki (APE-1 [2]) was > 100 µM.
For `CCCCCCCCC/C(=C\C1=C(C)C(=O)C(OC)=C(OC)C1=O)C(=O)O` [Compound E3330, (2E)-2-[(4,5-dimethoxy-2-methyl-3,6-dioxo-1,4-cyclohexadien-1-yl)methylene]undecanoic acid], the IC50 [9] is given as ~35 µM, the “LD50 of MeLex in the presence … of inhibitor” value (T98G cells [4]) is given as “little or no contribution” and the “E3330 concentration for approximately 50% decrease in the fluorescence of 4” value (APE-1 [10]) is given as “approximately 12 μM”. For the same compound, the “LD50 of MeLex in the presence … of inhibitor” value (T98G cells [6]) was 128 µM, the “level of aldehyde reactive sites (ARS)” value (T98G cells [1]) was “returned to control levels by 18 h” and the “level of ARS in combination with MeLex” value (T98G cells [1]) was “dropped off”. For the same compound, the IC50 [11] was ~35 µM, the “inhibition of APE-1 endonuclease activity” value [12] was 3 fold and the IC50 (APE-1 redox) was 10 µM.
For `Cc1cc(N/N=C/c2ccc3c(c2)OCO3)c2cc3c(cc2n1)OCO3` [Compound 3], the IC50 (VERA kidney cell line) is listed as 0.63 µM and the IC50 (APE-1 [8]) is listed as 2.9 µM.
For `COc1ccc2c(C)cc(N/N=C(\C)c3cn(C)n(-c4ccccc4)c3=O)nc2c1` [Compound 8], the “level of aldehyde reactive sites (ARS)” value (T98G cells [1]) was “same as background”, the Ki (APE-1 [2]) was > 100 µM and the IC50 (APE-1 [8]) was > 100 µM.
For `Cc1ccc(S(=O)(=O)NC(CSCc2ccccc2)C(=O)NC(Cc2ccc(O)cc2)C(=O)O)cc1` (stereo not drawn) [Compound 25] (Tos-Cys(Bn)-Tyr-OH; configuration not given here), the Ki (APE-1 [2]) was > 100 µM.
For “methyl 3-(1-methyl-5-(1-methyl-5-(propylcarbamoyl)-1H-pyrrol-3-ylcarbamoyl)-1H-pyrrol-3-ylamino)-3-oxopropane-1-sulfonate [MeLex, reference compound]”, the LD50 (T98G cells [3]; short term (72 h) MTS assay, compound alone) was 250 µM and 267 µM, the “induction of ARS” value (T98G cells [1]; 80 μM MeLex, through the first 4 h) was 36 /10^5 nucleotides and the LD50 (T98G cells [7]; long term assay, compound alone) was 12 µM and 9.9 µM.
With `CCn1c2ccccc2c2cc(/C=N/Nc3cc(C)nc4cc5c(cc34)OCO5)ccc21` [Compound 4] the LD50 (T98G cells [3]; 3-day MTS assay) was 0.96 µM, the LD10 concentration (T98G cells [3]) was 0.25 µM and the “potentiation of MeLex toxicity” value (T98G cells [4]; LD10 concentration of inhibitor) was “approximately 5 fold”. For the same compound, the “LD50 of MeLex in the presence … of inhibitor” value (T98G cells [4]) was 1.6 µM, the Ki [5] was 0.21 µM and the “LD50 of MeLex in the presence … of inhibitor” value (T98G cells [6]) was 49 µM. For the same compound, the “potentiation of MeLex toxicity (fold more sensitive)” value (T98G cells [6]; short term assay, LD10 concentration of inhibitor) was “approximately 5 fold”, the “level of aldehyde reactive sites (ARS)” value (T98G cells [1]) was “approximately 17 ARS/10^5 nucleotides” and the “level of ARS in combination with MeLex” value (T98G cells [1]) was 63 sites/10^5 nucleotides. The LD50 (T98G cells [7]; long term (10-day) assay, called clonogenic) was 0.19 µM, the LD10 concentration (T98G cells [7]; long term assay) was 0.08 µM and the “TM of DNA in presence of compound” value [13] was 37.3 °C. The IC50 (APE-1 [8]) was 4.1 µM and the “increase in stability (TM) of hairpin” value [14] was “not appreciably”.
With `CC(NC(=O)/C(=C\c1ccccc1)NC(=O)c1ccccc1)c1ccccc1` (stereo not drawn) [Compound 22] the Ki (APE-1 [2]) was > 100 µM.
With `CNC(=O)Oc1cc([N+](C)(C)C)ccc1C` [Compound 21] the Ki (APE-1 [2]) was > 100 µM.
In the case of `C/C(=N\Nc1cc(C)nc2cc3c(cc12)OCO3)c1cn(C)n(-c2ccccc2)c1=O` [Compound 1], the LD10 concentration (T98G cells [3]) is reported as 2.20 µM, the “LD50 of MeLex in the presence … of inhibitor” value (T98G cells [4]) is reported as 2.0 µM and the Ki [5] is reported as 0.45 µM. The “LD50 of MeLex in the presence … of inhibitor” value (T98G cells [6]) was 54 µM, the “level of ARS in combination with MeLex” value (T98G cells [1]) was 50 sites/10^5 nucleotides and the LD10 concentration (T98G cells [7]; long term assay) was 0.17 µM. The “TM of DNA in presence of compound” value [13] was 40.8 °C, the IC50 (APE-1 [8]) was 4.4 µM and the “increase in stability (TM) of hairpin” value [14] was > 9 °C.
In the case of `Nc1ncnc2c1ncn2C1OC(C(=O)NCC(=O)O)C(O)C1O` (stereo not drawn) [Compound 16], the Ki (APE-1 [2]) is reported as > 100 µM.
Work on `COc1cccc(/C=N/Nc2cc(C)nc3cc4c(cc23)OCO4)c1` [Compound 2] yielded a Ki [5] of 0.24 µM and an IC50 (APE-1 [8]) of 10.1 µM.
